# Measured values published in patent publication US20230085307A1, “PYRIDAZINONE COMPOUND AND HERBICIDE” (NISSAN CHEMICAL CORPORATION, priority 2019, published 2023).
# What was measured:
# [1] = tested on: barnyard grass; assay: Test Example 3: herbicidal effect by foliage application, Wagner pot (Table 18, symbol H); assay type: in vivo, barnyard grass (Echinochloa crus-galli); settings: amount of applied herbicide 320 g/ha
# In short: (§1)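 Plants were sown in alluvial soil held under 0.1–0.5 cm standing water and grown 14 days in a greenhouse at 25–30 °C. An emulsifiable formulation, water-diluted to the set dose, was then sprayed onto the foliage, and effects were scored three weeks later using previously defined criteria.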
# [2] = tested on: Chinese sprangletop; assay: Test Example 3: herbicidal effect by foliage application, Wagner pot (Table 18, symbol D); assay type: in vivo, chinese sprangletop (Leptochloa chinensis); settings: amount of applied herbicide 320 g/ha
# In short: as §1
# [3] = tested on: rice flat sedge; assay: Test Example 3: herbicidal effect by foliage application, Wagner pot (Table 18, symbol E); assay type: in vivo, rice flat sedge (Cyperus iria); settings: amount of applied herbicide 320 g/ha
# In short: as §1
# [4] = tested on: southern crabgrass; assay: Test Example 4: herbicidal effect by soil treatment (Table 19, symbol F); assay type: in vivo, southern crabgrass (Digitaria ciliaris); settings: amount of applied herbicide 320 g/ha
# In short: (§2)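 Seeds were sown in sterilized diluvial soil and covered with about 1.5 cm of soil. An emulsion formulation diluted with water to a predetermined herbicide amount was sprayed evenly onto the soil surface. Plants grew in a greenhouse at 25° C. to 30° C., and the effect was scored three weeks after application using criteria from an earlier test.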
# [5] = tested on: green foxtail; assay: Test Example 4: herbicidal effect by soil treatment (Table 19, symbol G); assay type: in vivo, green foxtail (Setaria viridis); settings: amount of applied herbicide 320 g/ha
# In short: as §2
# [6] = tested on: barnyard grass; assay: Test Example 4: herbicidal effect by soil treatment (Table 19, symbol H); assay type: in vivo, barnyard grass (Echinochloa crus-galli); settings: amount of applied herbicide 320 g/ha
# In short: as §2
# [7] = tested on: wild oat; assay: Test Example 4: herbicidal effect by soil treatment (Table 19, symbol I); assay type: in vivo, wild oat (Avena fatua); settings: amount of applied herbicide 320 g/ha
# In short: as §2
# [8] = tested on: blackgrass; assay: Test Example 4: herbicidal effect by soil treatment (Table 19, symbol J); assay type: in vivo, blackgrass (Alopecurus myosuroides); settings: amount of applied herbicide 320 g/ha
# In short: as §2
# [9] = tested on: Italian ryegrass; assay: Test Example 4: herbicidal effect by soil treatment (Table 19, symbol K); assay type: in vivo, Italian ryegrass (Lolium multiflorum); settings: amount of applied herbicide 320 g/ha
# In short: as §2
# [10] = tested on: windgrass; assay: Test Example 4: herbicidal effect by soil treatment (Table 19, symbol L); assay type: in vivo, windgrass (Apera spica-venti); settings: amount of applied herbicide 320 g/ha
# In short: as §2
# [11] = tested on: velvetleaf; assay: Test Example 4: herbicidal effect by soil treatment (Table 19, symbol M); assay type: in vivo, velvetleaf (Abutilon theophrasti); settings: amount of applied herbicide 320 g/ha
# In short: as §2
# [12] = tested on: redroot pigweed; assay: Test Example 4: herbicidal effect by soil treatment (Table 19, symbol N); assay type: in vivo, redroot pigweed (Amaranthus retroflexus); settings: amount of applied herbicide 320 g/ha
# In short: as §2
# [13] = tested on: lambsquarters; assay: Test Example 4: herbicidal effect by soil treatment (Table 19, symbol O); assay type: in vivo, lambsquarters (Chenopodium album); settings: amount of applied herbicide 320 g/ha
# In short: as §2
# [14] = tested on: chickweed; assay: Test Example 4: herbicidal effect by soil treatment (Table 19, symbol P); assay type: in vivo, common chickweed (Stellaria media); settings: amount of applied herbicide 320 g/ha
# In short: as §2
# [15] = tested on: persian speedwell; assay: Test Example 4: herbicidal effect by soil treatment (Table 19, symbol R); assay type: in vivo, Persian speedwell (Veronica persica); settings: amount of applied herbicide 320 g/ha
# In short: as §2
# [16] = tested on: southern crabgrass; assay: Test Example 5: herbicidal effect by foliage application, plastic box (Table 20, symbol F); assay type: in vivo, southern crabgrass (Digitaria ciliaris); settings: foliage application, AAH 320 g/ha, evaluated three weeks after application
# In short: (§3)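 Plants sown in sterilized diluvial soil and grown 14 days in a greenhouse at 25° C to 30° C, then sprayed on the foliage with the compound's emulsion diluted in water to a predetermined herbicide amount. Injury to weeds and crops scored three weeks after application on a visual rating scale.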
# [17] = tested on: green foxtail; assay: Test Example 5: herbicidal effect by foliage application, plastic box (Table 20, symbol G); assay type: in vivo, green foxtail (Setaria viridis); settings: foliage application, AAH 320 g/ha, evaluated three weeks after application
# In short: as §3
# [18] = tested on: barnyard grass; assay: Test Example 5: herbicidal effect by foliage application, plastic box (Table 20, symbol H); assay type: in vivo, barnyard grass (Echinochloa crus-galli); settings: foliage application, AAH 320 g/ha, evaluated three weeks after application
# In short: as §3
# [19] = tested on: wild oat; assay: Test Example 5: herbicidal effect by foliage application, plastic box (Table 20, symbol I); assay type: in vivo, wild oat (Avena fatua); settings: foliage application, AAH 320 g/ha, evaluated three weeks after application
# In short: as §3
# [20] = tested on: blackgrass; assay: Test Example 5: herbicidal effect by foliage application, plastic box (Table 20, symbol J); assay type: in vivo, blackgrass (Alopecurus myosuroides); settings: foliage application, AAH 320 g/ha, evaluated three weeks after application
# In short: as §3
# [21] = tested on: Italian ryegrass; assay: Test Example 5: herbicidal effect by foliage application, plastic box (Table 20, symbol K); assay type: in vivo, Italian ryegrass (Lolium multiflorum); settings: foliage application, AAH 320 g/ha, evaluated three weeks after application
# In short: as §3
# [22] = tested on: windgrass; assay: Test Example 5: herbicidal effect by foliage application, plastic box (Table 20, symbol L); assay type: in vivo, windgrass (Apera spica-venti); settings: foliage application, AAH 320 g/ha, evaluated three weeks after application
# In short: as §3
# [23] = tested on: velvetleaf; assay: Test Example 5: herbicidal effect by foliage application, plastic box (Table 20, symbol M); assay type: in vivo, velvetleaf (Abutilon theophrasti); settings: foliage application, AAH 320 g/ha, evaluated three weeks after application
# In short: as §3
# [24] = tested on: redroot pigweed; assay: Test Example 5: herbicidal effect by foliage application, plastic box (Table 20, symbol N); assay type: in vivo, redroot pigweed (Amaranthus retroflexus); settings: foliage application, AAH 320 g/ha, evaluated three weeks after application
# In short: as §3
# [25] = tested on: lambsquarters; assay: Test Example 5: herbicidal effect by foliage application, plastic box (Table 20, symbol O); assay type: in vivo, lambsquarters (Chenopodium album); settings: foliage application, AAH 320 g/ha, evaluated three weeks after application
# In short: as §3
# [26] = tested on: chickweed; assay: Test Example 5: herbicidal effect by foliage application, plastic box (Table 20, symbol P); assay type: in vivo, common chickweed (Stellaria media); settings: foliage application, AAH 320 g/ha, evaluated three weeks after application
# In short: as §3
# [27] = tested on: persian speedwell; assay: Test Example 5: herbicidal effect by foliage application, plastic box (Table 20, symbol R); assay type: in vivo, Persian speedwell (Veronica persica); settings: foliage application, AAH 320 g/ha, evaluated three weeks after application
# In short: as §3
Compound,herbicidal effect on H: barnyard grass [1],herbicidal effect on D: Chinese sprangletop [2],herbicidal effect on E: rice flat sedge [3],"F: southern crabgrass, herbicidal effect (criteria 0-5) [16]","G: green foxtail, herbicidal effect (criteria 0-5) [17]","H: barnyard grass, herbicidal effect (criteria 0-5) [18]","I: wild oat, herbicidal effect (criteria 0-5) [19]","J: blackgrass, herbicidal effect (criteria 0-5) [20]","K: Italian ryegrass, herbicidal effect (criteria 0-5) [21]","L: windgrass, herbicidal effect (criteria 0-5) [22]","M: velvetleaf, herbicidal effect (criteria 0-5) [23]","N: redroot pigweed, herbicidal effect (criteria 0-5) [24]","O: lambsquarters, herbicidal effect (criteria 0-5) [25]","P: chickweed, herbicidal effect (criteria 0-5) [26]","R: persian speedwell, herbicidal effect (criteria 0-5) [27]",other results
Cc1nn(C)c(=O)c(-c2c(-c3ccc(Cl)cc3Cl)sc3ccc(F)cc23)c1O [2-346],4 (Herbicidal rate of 70% or more and less than 90%),3 (Herbicidal rate of 40% or more and less than 70%),1 (Herbicidal rate of 5% or more and less than 20%),0 (Herbicidal rate of 5% or less (almost no effect)),0 (Herbicidal rate of 5% or less (almost no effect)),0 (Herbicidal rate of 5% or less (almost no effect)),0 (Herbicidal rate of 5% or less (almost no effect)),0 (Herbicidal rate of 5% or less (almost no effect)),3 (Herbicidal rate of 40% or more and less than 70%),2 (Herbicidal rate of 20% or more and less than 40%),1 (Herbicidal rate of 5% or more and less than 20%),3 (Herbicidal rate of 40% or more and less than 70%),2 (Herbicidal rate of 20% or more and less than 40%),5 (Herbicidal rate of 90% or more (almost completely withered)),4 (Herbicidal rate of 70% or more and less than 90%),herbicidal effect on F: southern crabgrass [4]: 0 (Herbicidal rate of 5% or less (almost no effect)); herbicidal effect on G: green foxtail [5]: 0 (Herbicidal rate of 5% or less (almost no effect)); herbicidal effect on H: barnyard grass [6]: 0 (Herbicidal rate of 5% or less (almost no effect)); herbicidal effect on I: wild oat [7]: 0 (Herbicidal rate of 5% or less (almost no effect)); herbicidal effect on J: blackgrass [8]: 0 (Herbicidal rate of 5% or less (almost no effect)); herbicidal effect on K: Italian ryegrass [9]: 0 (Herbicidal rate of 5% or less (almost no effect)); herbicidal effect on L: windgrass [10]: 0 (Herbicidal rate of 5% or less (almost no effect)); herbicidal effect on M: velvetleaf [11]: 0 (Herbicidal rate of 5% or less (almost no effect)); herbicidal effect on N: redroot pigweed [12]: 0 (Herbicidal rate of 5% or less (almost no effect)); herbicidal effect on O: lambsquarters [13]: 3 (Herbicidal rate of 40% or more and less than 70%); herbicidal effect on P: chickweed [14]: 0 (Herbicidal rate of 5% or less (almost no effect)); herbicidal effect on R: persian speedwell [15]: 0 (Herbicidal rate of 5% or less (almost no effect))
CCn1nc(C)c(O)c(-c2c(-c3ccc(C(F)(F)F)cc3)sc3ccc(F)cc23)c1=O [2-402],5 (Herbicidal rate of 90% or more (almost completely withered)),3 (Herbicidal rate of 40% or more and less than 70%),3 (Herbicidal rate of 40% or more and less than 70%),4 (Herbicidal rate of 70% or more and less than 90%),3 (Herbicidal rate of 40% or more and less than 70%),5 (Herbicidal rate of 90% or more (almost completely withered)),4 (Herbicidal rate of 70% or more and less than 90%),5 (Herbicidal rate of 90% or more (almost completely withered)),5 (Herbicidal rate of 90% or more (almost completely withered)),5 (Herbicidal rate of 90% or more (almost completely withered)),4 (Herbicidal rate of 70% or more and less than 90%),4 (Herbicidal rate of 70% or more and less than 90%),4 (Herbicidal rate of 70% or more and less than 90%),5 (Herbicidal rate of 90% or more (almost completely withered)),5 (Herbicidal rate of 90% or more (almost completely withered)),"herbicidal effect, F: southern crabgrass [4]: 2 (Herbicidal rate of 20% or more and less than 40%); herbicidal effect, G: green foxtail [5]: 0 (Herbicidal rate of 5% or less (almost no effect)); herbicidal effect, H: barnyard grass [6]: 0 (Herbicidal rate of 5% or less (almost no effect)); herbicidal effect, I: wild oat [7]: 0 (Herbicidal rate of 5% or less (almost no effect)); herbicidal effect, J: blackgrass [8]: 0 (Herbicidal rate of 5% or less (almost no effect)); herbicidal effect, K: Italian ryegrass [9]: 2 (Herbicidal rate of 20% or more and less than 40%); herbicidal effect, L: windgrass [10]: 2 (Herbicidal rate of 20% or more and less than 40%); herbicidal effect, M: velvetleaf [11]: 0 (Herbicidal rate of 5% or less (almost no effect)); herbicidal effect, N: redroot pigweed [12]: 1 (Herbicidal rate of 5% or more and less than 20%); herbicidal effect, O: lambsquarters [13]: 1 (Herbicidal rate of 5% or more and less than 20%); herbicidal effect, P: chickweed [14]: 4 (Herbicidal rate of 70% or more and less than 90%); herbicidal effect, R: persian speedwell [15]: 5 (Herbicidal rate of 90% or more (almost completely withered))"
